Laboratory results: PubChem BioAssay AID330 (DTP/NCI, 2004)
Where “and” joins values, the source holds several entries; their conditions need not be identical. Equal entries are not always repeated. Toxic doses and inconclusive results are not listed. The calls were made as follows: active = survival T/C of 150% or more; inactive = T/C below 125% in these data. Square brackets hold non-standard residues; d marks the D form. Peptide text beside a SMILES is read from it. * marks the point of attachment. ξ: configuration not given here. Cbz = O=C(OCc1ccccc1)*; ξNle = CCCCC(N)C(=O)O

Test system: P388 leukemia ip, CD2F1 mice, survival T/C
Test: NCI In Vivo Anticancer Drug Screen. Data for tumor model P388 Leukemia (intraperitoneal) in CD2F1 (CDF1) mice
Details: endpoint: median survival time, higher = longer survival
Outline: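 Mice carrying the transplanted tumor received test compound or vehicle. Survival was recorded in each group, and the value is the treated-group measurement divided by that of the vehicle-treated control group.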

[1] = dose: 100.0 mg/kg/injection, schedule: Q01DX001 (ip), vehicle: Klucel (hydroxypropylcellulose) (HPC)
[2] = dose: 50.0 mg/kg/injection, schedule: Q01DX005 (ip), vehicle: saline with Tween-80
[3] = dose: 50.0 mg/kg/injection, schedule: Q01DX005 (ip), vehicle: saline
[4] = dose: 60.0 mg/kg/injection, schedule: Q01DX005 (ip), vehicle: saline
[5] = dose: 120.0 mg/kg/injection, schedule: Q01DX005 (ip), vehicle: saline
[6] = dose: 60.0 mg/kg/injection, schedule: Q01DX005 (ip), vehicle: saline with Tween-80
[7] = dose: 240.0 mg/kg/injection, schedule: Q01DX005 (ip), vehicle: saline with Tween-80
[8] = dose: 240.0 mg/kg/injection, schedule: Q01DX005 (ip), vehicle: saline

Measured: T/C

CC(=O)NCCSSCc1ccccc1CS(=O)O
inactive: dose: 25.0 mg/kg/injection, schedule: Q01DX005 (ip), vehicle: suspension in saline 104 % of control | dose: 50.0 mg/kg/injection, schedule: Q01DX005 (ip), vehicle: suspension in saline 106 % of control | dose: 100.0 mg/kg/injection, schedule: Q01DX005 (ip), vehicle: suspension in saline 113 % of control

CNC[C@@H](O)c1ccc(O)c(O)c1
inactive: dose: 0.78 mg/kg/injection, schedule: Q01DX009 (ip), vehicle: suspension in saline 97 % of control | dose: 1.56 mg/kg/injection, schedule: Q01DX009 (ip), vehicle: suspension in saline 104 % of control | dose: 3.12 mg/kg/injection, schedule: Q01DX009 (ip), vehicle: suspension in saline 104 % of control

Cc1cn(CCCCCOc2c3ccoc3cc3oc(=O)ccc23)c(=O)[nH]c1=O
inactive: [1] 92 % of control | dose: 200.0 mg/kg/injection, schedule: Q01DX001 (ip), vehicle: Klucel (hydroxypropylcellulose) (HPC) 90 % of control | dose: 400.0 mg/kg/injection, schedule: Q01DX001 (ip), vehicle: Klucel (hydroxypropylcellulose) (HPC) 87 % of control

CN(C)CCNc1cccc2sc3ccc(O)cc3c(=O)c12
inactive: dose: 12.5 mg/kg/injection, schedule: Q01DX005 (ip), vehicle: saline with Tween-80 113 % of control | dose: 25.0 mg/kg/injection, schedule: Q01DX005 (ip), vehicle: saline with Tween-80 115 % of control and 123 % of control | [2] 123 % of control and 124 % of control

O=C1C2C3C=CC(C2C(=O)N1Cc1ccccc1)C1C2C(=O)N(Cc4ccccc4)C(=O)C2C31 (centres undefined)
inactive: dose: 12.5 mg/kg/injection, schedule: Q01DX001 (ip), vehicle: saline with Tween-80 101 % of control | dose: 25.0 mg/kg/injection, schedule: Q01DX001 (ip), vehicle: saline with Tween-80 90 % of control

CC1=CC2c3cccc4[nH]cc(c34)CC2N(C)C1 (centres undefined)
inactive: dose: 2.5 mg/kg/injection, schedule: Q01DX009 (ip), vehicle: saline 114 % of control and 116 % of control | dose: 5.0 mg/kg/injection, schedule: Q01DX009 (ip), vehicle: saline 117 % of control | dose: 10.0 mg/kg/injection, schedule: Q01DX009 (ip), vehicle: saline 116 % of control and 120 % of control

COC(=O)[CH2][Sn]([CH3])([CH3])[CH2]C(=O)OC
inactive: dose: 12.5 mg/kg/injection, schedule: Q01DX005 (ip), vehicle: saline 114 % of control | dose: 25.0 mg/kg/injection, schedule: Q01DX005 (ip), vehicle: saline 124 % of control | [3] 123 % of control

CCCCC(NC(=O)OCc1ccccc1)C(=O)NCC(=O)OC (centres undefined) (Cbz-[ξNle]-Gly-OMe)
inactive: [2] 99 % of control | dose: 100.0 mg/kg/injection, schedule: Q01DX005 (ip), vehicle: saline with Tween-80 100 % of control | dose: 200.0 mg/kg/injection, schedule: Q01DX005 (ip), vehicle: saline with Tween-80 99 % of control

Nc1ccccc1N1CCNCC1
inactive: dose: 12.5 mg/kg/injection, schedule: Q04DX003 (ip), vehicle: saline 100 % of control | dose: 25.0 mg/kg/injection, schedule: Q04DX003 (ip), vehicle: saline 100 % of control | dose: 50.0 mg/kg/injection, schedule: Q04DX003 (ip), vehicle: saline 98 % of control and 101 % of control

Cc1ccc(S(=O)(=O)/N=C/[N-][n+]2cccc(C)c2)cc1
inactive: dose: 100.0 mg/kg/injection, schedule: Q04DX003 (ip), vehicle: saline 104 % of control | dose: 200.0 mg/kg/injection, schedule: Q04DX003 (ip), vehicle: saline 97 % of control | dose: 400.0 mg/kg/injection, schedule: Q04DX003 (ip), vehicle: saline 97 % of control

CC(CN(C)C)C(=O)/C=C/c1ccc(F)c(F)c1 (centres undefined)
inactive: [4] 100 % of control and 103 % of control | [5] 116 % of control and 124 % of control

CCCCC(C)(CN(C)C)C(=O)/C=C/c1ccccc1 (centres undefined)
inactive: dose: 50.0 mg/kg/injection, schedule: Q01DX009 (ip), vehicle: saline 108 % of control | dose: 100.0 mg/kg/injection, schedule: Q01DX009 (ip), vehicle: saline 115 % of control | dose: 200.0 mg/kg/injection, schedule: Q01DX009 (ip), vehicle: saline 86 % of control

CC(=O)OCC(Br)C(Br)COC(C)=O (centres undefined)
inactive: dose: 100.0 mg/kg/injection, schedule: Q04DX003 (ip), vehicle: saline with Tween-80 100 % of control | dose: 200.0 mg/kg/injection, schedule: Q04DX003 (ip), vehicle: saline with Tween-80 100 % of control | dose: 400.0 mg/kg/injection, schedule: Q04DX003 (ip), vehicle: saline with Tween-80 100 % of control

CCn1c2ccccc2n2c(=O)c(Cc3ccccc3)c(C)c(C#N)c12
inactive: dose: 15.0 mg/kg/injection, schedule: Q01DX005 (ip), vehicle: saline with Tween-80 92 % of control | dose: 30.0 mg/kg/injection, schedule: Q01DX005 (ip), vehicle: saline with Tween-80 91 % of control | [6] 88 % of control and 89 % of control | [7] 86 % of control

CC(C)=CCCC(=O)C(c1nc2n(c1O)C(=N)N=N2)c1nc2n(c1O)C(=N)N=N2 (centres undefined)
inactive: [4] 95 % of control | [5] 97 % of control | [8] 97 % of control

NC1=NN(O)C2=CC(F)C=CC2=N1 (centres undefined)
inactive: dose: 50.0 mg/kg/injection, schedule: Q01DX009 (ip), vehicle: Klucel (hydroxypropylcellulose) (HPC) 103 % of control and 91 % of control | dose: 100.0 mg/kg/injection, schedule: Q01DX009 (ip), vehicle: Klucel (hydroxypropylcellulose) (HPC) 101 % of control and 114 % of control and 92 % of control | dose: 200.0 mg/kg/injection, schedule: Q01DX009 (ip), vehicle: Klucel (hydroxypropylcellulose) (HPC) 100 % of control and 91 % of control | dose: 400.0 mg/kg/injection, schedule: Q01DX009 (ip), vehicle: Klucel (hydroxypropylcellulose) (HPC) 105 % of control

OCCOCCSCCOCCO
inactive: [3] 100 % of control | dose: 100.0 mg/kg/injection, schedule: Q01DX005 (ip), vehicle: saline 100 % of control | dose: 200.0 mg/kg/injection, schedule: Q01DX005 (ip), vehicle: saline 102 % of control

CCCC(OC(=O)c1ccc([N+](=O)[O-])cc1)C(=O)O (centres undefined)
inactive: dose: 25.0 mg/kg/injection, schedule: Q01DX001 (ip), vehicle: Klucel (hydroxypropylcellulose) (HPC) 95 % of control | dose: 50.0 mg/kg/injection, schedule: Q01DX001 (ip), vehicle: Klucel (hydroxypropylcellulose) (HPC) 105 % of control | [1] 100 % of control

COc1ccc(-c2cn(-c3ccc(OC)cc3)c3ncnc(N)c23)cc1
inactive: [6] 102 % of control | dose: 120.0 mg/kg/injection, schedule: Q01DX005 (ip), vehicle: saline with Tween-80 100 % of control | [7] 96 % of control

CSc1ncnc2c1c1c(N)ncnc1n2C1OC(CO)C(O)C1O (centres undefined)
inactive: dose: 25.0 mg/kg/injection, schedule: Q01DX005 (ip), vehicle: other 97 % of control | dose: 50.0 mg/kg/injection, schedule: Q01DX005 (ip), vehicle: other 97 % of control | dose: 100.0 mg/kg/injection, schedule: Q01DX005 (ip), vehicle: other 109 % of control | dose: 200.0 mg/kg/injection, schedule: Q01DX005 (ip), vehicle: other 105 % of control

O=C(O)C(Cc1c[nH]c2ccc(O)cc12)NCC1(O)OCC(O)C(O)C1O (centres undefined)
inactive: [4] 97 % of control | [5] 99 % of control | [8] 98 % of control

CN(C)CNC(=O)c1ccccc1
inactive: dose: 1.25 mg/kg/injection, schedule: Q01DX009 (ip), vehicle: water 99 % of control | dose: 2.5 mg/kg/injection, schedule: Q01DX009 (ip), vehicle: water 121 % of control | dose: 5.0 mg/kg/injection, schedule: Q01DX009 (ip), vehicle: water 99 % of control | dose: 10.0 mg/kg/injection, schedule: Q01DX009 (ip), vehicle: water 100 % of control | dose: 20.0 mg/kg/injection, schedule: Q01DX009 (ip), vehicle: water 99 % of control
